Laboratory results taken from patent US20060148858A1, “1, 2-Azole derivatives with hypoglycemic and hypolipidemic activity” (priority 2002, published 2006).
Read-outs that look alike come from different tables or passages of the source.

Key:
PPARγ-RXRα heterodimer = biological target: T1, PPARγ-RXRα heterodimer (Homo sapiens, UniProt P37231); experiment: PPARγ-RXRα heterodimer ligand activity, luciferase reporter in PPARγ:RXRα:4ERPP/CHO-K1 cells (Test Example 3); assay type: cell-based; details: 18-48 hours, concentration for 50% of the maximum fold induction
T1 construct: expressed in transfected cells; host or cells: CHO-K1
T1 sequence (P37231 1-477 isoform P37231-2): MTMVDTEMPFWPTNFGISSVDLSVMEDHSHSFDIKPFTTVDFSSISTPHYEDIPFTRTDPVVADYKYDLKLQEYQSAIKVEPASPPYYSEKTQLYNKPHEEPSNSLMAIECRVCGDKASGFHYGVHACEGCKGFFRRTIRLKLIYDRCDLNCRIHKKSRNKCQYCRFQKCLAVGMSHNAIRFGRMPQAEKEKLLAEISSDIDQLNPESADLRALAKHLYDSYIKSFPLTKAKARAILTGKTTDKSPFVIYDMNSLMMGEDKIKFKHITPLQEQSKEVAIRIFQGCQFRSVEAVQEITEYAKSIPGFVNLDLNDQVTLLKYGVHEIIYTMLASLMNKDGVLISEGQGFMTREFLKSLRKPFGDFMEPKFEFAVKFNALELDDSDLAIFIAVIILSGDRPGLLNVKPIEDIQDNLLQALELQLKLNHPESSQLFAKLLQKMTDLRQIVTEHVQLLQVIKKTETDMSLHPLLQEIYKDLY
T1 sequence (P19793 1-462 partner): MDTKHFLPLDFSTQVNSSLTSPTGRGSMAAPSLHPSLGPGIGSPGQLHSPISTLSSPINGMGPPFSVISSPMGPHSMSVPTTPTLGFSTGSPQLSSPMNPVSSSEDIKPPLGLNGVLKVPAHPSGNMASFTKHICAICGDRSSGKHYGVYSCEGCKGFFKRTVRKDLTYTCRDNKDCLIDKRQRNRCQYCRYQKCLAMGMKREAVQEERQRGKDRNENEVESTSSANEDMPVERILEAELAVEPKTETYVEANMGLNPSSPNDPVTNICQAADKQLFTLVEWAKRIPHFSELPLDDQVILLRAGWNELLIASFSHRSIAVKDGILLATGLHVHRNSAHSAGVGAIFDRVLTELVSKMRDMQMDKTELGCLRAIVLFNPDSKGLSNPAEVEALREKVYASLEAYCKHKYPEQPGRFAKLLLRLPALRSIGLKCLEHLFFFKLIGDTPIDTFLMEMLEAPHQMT
Experimental: A PPARγ: RXRα: 4ERPP/CHO-K1 cells obtained in Reference Example 8a described later were cultured in HAM F12 medium (produced by Life Technologies, Inc., USA) containing 10% Fetal bovine serum (produced by Life Technologies, Inc., USA) and then inoculated to a 96-well white plate (produced by Corning Costar Corporation, USA) at the density of 2×10^4 cells/well, and cultured in a CO2 gas incubator at 37° C. overnight.
After removing the medium from 96 well white plate, 80 μl of HAM F12 medium containing 0.1% fatty acid-free bovine serum albumin (BSA) and 20 μl of test compound were added, which was cultured in a CO2 gas incubator at 37° C. for 18-48 hours. After removing the medium, 40 μl of PIKKAGENE 7.5 (produced by Wako Pure Chemical Industries, Ltd.) diluted twice with HBSS (HANKS' BALANCED SALT SOLUTION)(produced by BIO WHITTAKER Inc., USA), was added. After stirring, the luciferase activity was determined using 1420 ARVO Multilabel Counter (produced by PerkinElmer Inc., USA).
A fold induction was calculated based on the luciferase activity of each test compound by taking the luciferase activity in the non-treatment group as 1. The values of the test compound concentration and the fold induction were analyzed using PRISM (produced by GraphPad Software Inc. USA) to calculate the EC50 values, the effective concentration of a test compound for 50% of the maximum fold induction.
After a CHO-K1 cell cultured in a 150 cm^2 cell culture flask (750 ml)(produced by Corning Costar Corporation, USA) containing HAM F12 medium (produced by Life Technologies, Inc., USA) supplemented with 10% Fetal Bovine Serum (produced by Life Technologies, Inc., USA) was scraped by treating with 0.5 g/L trypsin-0.2 g/L EDTA (ethylenediaminetetraacetic acid) (produced by Life Technologies, Inc., USA), the cell was washed with PBS (phosphate-buffered saline) (produced by Life Technologies, Inc., USA), centrifuged (1000 rpm, 5 minutes), and then suspended in PBS. Subsequently, a DNA was introduced into the cell under the condition shown below using GENE PULSER (produced by Bio-Rad Laboratories, USA).
Namely, to a cuvette having a 0.4 cm gap, added were 8×10^6 cells and 10 μg of plasmid pVgRXR2-hPPARγ obtained in Reference Example 7a and 10 μg of reporter plasmid pGL3-4ERPP-TK neo obtained in Reference Example 5a, which was subjected to electroporation at the voltage of 0.25 kV under the capacitance of 960 μF. Subsequently, the cell was transferred into a HAM F12 medium containing 10% Fetal Bovine Serum and cultured for 24 hours and then the cell was scraped again and centrifuged, and then suspended in HAM F12 medium containing 10% Fetal Bovine Serum supplemented with 500 μg/ml of GENETICIN (produced by Life Technologies, Inc., USA) and 250 μg/ml of ZEOCIN (produced by Invitrogen, USA). The obtained suspension was diluted to the density of 10^4 cells/ml and inoculated to a 96-well plate (produced by Corning Costar Corporation, USA), which was cultured in a CO2 gas incubator at 37° C., whereby obtaining a GENETICIN- and ZEOCIN-resistant transformant.
Subsequently, after the transformant cell line thus obtained was cultured in a 24-well plate (produced by Corning Costar Corporation, USA), selected was a cell line in which the luciferase was expressed and induced, i.e., PPARγ:RXRα:4ERPP/CHO-K1 cell by addition of 10 μM of pioglitazone hydrochloride.

KKAY mice = experiment: Hypoglycemic and hypolipidemic actions in mice (Test Example 1); assay type: in vivo; details: Mus musculus, po, 96 h, 0.005% in powdery diet, four days, non-treated group taken as 100%
Experimental: Test compounds were mixed in a powdery diet (CE-2, Japan Clea) at the concentration of 0.005%, and freely given to KKAY mice (9 to 12 weeks old, 5 mice in a group), a model of obese and non-insulin dependent diabetes (type 2 diabetes), for four days. During this period, water was given freely. Blood was sampled from orbital venous plexus, and glucose and triglyceride levels in plasma separated from blood were determined enzymatically using L type Wako Glu2 (Wako Pure Chemical Industries, Ltd.) or L type Wako TG·H (Wako Pure Chemical Industries, Ltd.), respectively.
In the table, “hypoglycemic action (%)” means the rate of decrease (%) in the blood glucose level of the treated group when the blood glucose level of the non-treated group is taken as 100%. In addition, the “hypolipidemic action (%)” means the rate of decrease (%) in the blood triglyceride level of the treated group when the blood triglyceride level of the non-treated group is taken as 100%.

[1] = rate of decrease in blood glucose level, read-out: Hypoglycemic action (%)
[2] = rate of decrease in blood triglyceride level, read-out: Hypolipidemic action (%)

| EC50 (PPARγ-RXRα heterodimer) [nM] | melting point [°C] | SMILES | inhibition in vivo at 0.005 % in diet (KKAY mice; [1]) [%] | inhibition in vivo at 0.005 % in diet (KKAY mice; [2]) [%] |
| --- | --- | --- | --- | --- |
| 22 | 121 to 122 | CCCCc1nn(-c2ccc(C(F)(F)F)cn2)cc1CCCOc1c(CC(=O)O)cccc1OC [Example 197, [2-(3-{3-butyl-1-[5-(trifluoromethyl)-2-pyridyl]-1H-pyrazol-4-yl}propoxy)-3-methoxyphenyl]acetic acid] | 45 | 65 |
| 18 | 102 to 103 | CCC(CC)c1nn(-c2ccc(C(F)(F)F)cn2)cc1CCCOc1c(F)cccc1CC(=O)O [Example 214, [2-(3-{3-(1-ethylpropyl)-1-[5-(trifluoromethyl)-2-pyridyl]-1H-pyrazol-4-yl}propoxy)-3-fluorophenyl]acetic acid] | 44 | 52 |
| 20 | 65 to 66 | CCC(CC)c1nn(-c2ccc(C(F)(F)F)cn2)cc1CCCOc1ccccc1CC(=O)O [Example 215, [2-(3-{3-(1-ethylpropyl)-1-[5-(trifluoromethyl)-2-pyridyl]-1H-pyrazol-4-yl}propoxy)phenyl]acetic acid] | 50 | 45 |
| 18 | 117 to 118 | CCC(C)c1nn(-c2ccc(C(F)(F)F)cn2)cc1CCCOc1c(CC(=O)O)cccc1OC (stereo not shown) [Example 216, [3-methoxy-2-(3-{3-(1-methylpropyl)-1-[5-(trifluoromethyl)-2-pyridyl]-1H-pyrazol-4-yl}propoxy)phenyl]acetic acid] | 46 | 61 |
| 51 | 152 to 153 | COc1cccc(CC(=O)O)c1OCCCc1cn(-c2ccc(Br)cn2)nc1C(C)C [Example 218, (2-{3-[1-(5-bromo-2-pyridyl)-3-isopropyl-1H-pyrazol-4-yl]propoxy}-3-methoxyphenyl)acetic acid] | 34 | 43 |
| 9.6 | 107 to 108 | CCCC(C)c1nn(-c2ccc(C(F)(F)F)cn2)cc1CCCOc1c(CC(=O)O)cccc1OC (stereo not shown) [Example 220, [3-methoxy-2-(3-{3-(1-methylbutyl)-1-[5-(trifluoromethyl)-2-pyridyl]-1H-pyrazol-4-yl}propoxy)phenyl]acetic acid] | 44 | 50 |
| 90 | 125 to 126 | COc1cccc(CC(=O)O)c1OCCCc1cn(-c2ccc(F)cn2)nc1C(C)C [Example 273, (2-{3-[1-(5-fluoro-2-pyridyl)-3-isopropyl-1H-pyrazol-4-yl]propoxy}-3-methoxyphenyl)acetic acid] | – | – |
| 36 | 124 to 125 | COc1ccc(-n2cc(CCCOc3c(CC(=O)O)cccc3OC)c(C(C)C)n2)nn1 [Example 277, (3-methoxy-2-{3-[1-(6-methoxypyridazin-3-yl)-3-isopropyl-1H-pyrazol-4-yl]propoxy}phenyl)acetic acid] | – | – |
| 17 | 156 to 157 | CCOc1cccc(CC(=O)O)c1OCCCc1cn(-c2ccc(C(F)(F)F)cn2)nc1C1CCCCC1 [Example 306, [2-(3-{3-cyclohexyl-1-[5-(trifluoromethyl)-2-pyridinyl]-1H-pyrazol-4-yl}propoxy)-3-ethoxyphenyl]acetic acid] | – | – |
| 23 | 140 to 141 | COc1cccc(CC(=O)O)c1OCCCc1cn(-c2ccc(C(F)(F)F)cn2)nc1C1CCCCC1 [Example 307, [2-(3-{3-cyclohexyl-1-[5-(trifluoromethyl)-2-pyridinyl]-1H-pyrazol-4-yl}propoxy)-3-methoxyphenyl]acetic acid] | – | – |
| 74 | 109 to 110 | CCCCc1nn(-c2ccc(C(F)(F)F)cn2)cc1CCCOc1nn(CC)cc1CC(=O)O [Example 334, [3-(3-{3-butyl-1-[5-(trifluoromethyl)-2-pyridinyl]-1H-pyrazol-4-yl}propoxy)-1-ethyl-1H-pyrazol-4-yl]acetic acid] | – | – |
